Results published in patent publication US12624027B2, “Salts and polymorphic forms of 6-chloro-7-(4-(4-chlorobenzyl)piperazin-1-yl)-2-(1,3-dimethyl-1H-pyrazol-4-yl)-3H-imidazo[4,5-b]pyridine” (ELLIPSES PHARMA LTD, priority 2020, dated 2026).
“Also recorded” adds a separate entry of the source. Counter-ions that a name gives are not always drawn. Like-named read-outs stand apart in the source and are kept apart here.

What was measured:
Type in all cases: physicochemical
[1] = Stability of the crystalline form in organic solvents and on handling (XRPD)
Procedure: XRPD analysis was carried out on a PANalytical X'pert pro with PIXcel detector (128 channels), scanning the samples between 3 and 35° 2θ. The material was gently ground to release any agglomerates and loaded onto a multi-well plate with Kapton or Mylar polymer film to support the sample. The multi-well plate was then placed into the diffractometer and analyzed using Cu K radiation (α1 λ=1.54060 Å; α2=1.54443 Å; β=1.39225 Å; α1:α2 ratio=0.5) running in transmission mode (step size 0.01300 2θ, step time 18.87 s) using 40 kV/40 mA generator settings. Data were visualized and images generated using the HighScore Plus 4.7 desktop application (PANalytical, 2017).
A slurry of Compound A fumarate lyophile is prepared by adding aliquots of solvent to the lyophile until a mobile slurry was observed. Solvents and volumes can be found in Table 1 below. The slurries are temperature cycled with agitation, between ambient (ca. 25° C.) and 40° C. in 4-hour cycles over 72 hours. Post-temperature cycling the samples were filtered via centrifugation. Isolated solids can be analysed by XRPD.

[2] = Dynamic vapour sorption (DVS), hygroscopicity; conditions: for form change, hydration or dehydration after DVS (XRPD of recovered solids): after sorption/desorption cycles; for DVS uptake (weight increase): 25° C.
Procedure: Approximately, 10-20 mg of sample was placed into a mesh vapor sorption balance pan and loaded into a DVS Intrinsic dynamic vapour sorption balance by Surface Measurement Systems. The sample was subjected to a ramping profile from 40-90% relative humidity (RH) at 10% increments, maintaining the sample at each step until a stable weight had been achieved (dm/dt 0.004%, minimum step length 30 minutes, maximum step length 500 minutes) at 25° C. After completion of the sorption cycle, the sample was dried using the same procedure to 0% RH and then a second sorption cycle back to 40% RH. Two cycles were performed. The weight change during the sorption/desorption cycles were plotted, allowing for the hygroscopic nature of the sample to be determined. XRPD analysis was then carried out on any solid retained.

[3] = Aqueous solubility of Compound A salts (salt assessment)
Procedure: The mono-mesylate, di-mesylate, mono-hydrochloride, di-hydrochloride and fumarate salts of Compound A were assessed for compliance with the following properties identified by the inventors as being relevant to pharmaceutical suitability:
Aqueous solubility was determined by weighing out ˜3 mg of the salt form into a clean HPLC vial, adding HPLC grade water, shaking, vortexing, and/or sonicating to mix and aid dissolution as necessary. Once fully dissolved (clear solution) solubility is calculated based on the amount of water added. HPLC purity and DVS can be determined using methods described herein or methods known in the art. Processability is based on solubility of the salt form in certain excipients. Automated elemental analysis can be performed with 10 mg of the Compound A salt, using caffeine as a reference material. CHNX and the stoichiometry of the salt to the Compound A is determined. Dissolution was determined across 4 pH values (2.0, 3.8, 5.3, 7.2) using a Sirius T3 module, SOP 2070 and 2071, with 5 to 10 mg of Compound A salt compressed into a tablet disc.

[4] = Thermodynamic solubility assessment in biological media (FaSSIF, FeSSIF, FaSSGF), HPLC of mother liquors
Procedure: The thermodynamic solubility of Compound A free base, Compound A fumarate Form 1 and Compound A hemi-fumarate Form 3 was assessed in 3 biological media: Fasted State Simulated Intestinal Fluid (FaSSIF); Fed State Simulated Intestinal Fluid (FeSSIF) and Fasted State Simulated Gastric Fluid (FaSSGF).
The following procedure was carried out. Approximately 10 mg of material was weighed into 3×1.5 mL glass vials. 0.02 mL aliquots of appropriate buffer were added to each vial until a final concentration of 10 mg/mL was obtained. The samples were then filtered via centrifugation and the mother liquors analyzed by HPLC.

[5] = 1-week stability study of Form 3 (XRPD and HPLC)
Procedure: The stability of Compound A fumarate Form 3 was assessed under ambient and stressed conditions. The following procedure was carried out. Approximately 20 mg of material was added to 3×1.5 mL glass vials. The vials were then stored under the following conditions: • Ambient light and temperature (closed vial) • 40° C./75% RH (open vial) • 80° C. (closed vial)
After 1 week the samples were collected and analyzed by XRPD and HPLC.

[6] = Stability of Form 1 on storage (appearance, HPLC, water content, XRPD)
Procedure: The stability of Form 1 was tested for compliance with the following stability acceptance criteria:
Form 1 was prepared as described in Example X above. The following amounts of Form 1 were weighed into 30 ml HDPE Nalgene containers:
Each container was placed into a small grip-seal bag and incubated at the conditions above.
Visual appearance and purity by HPLC were assessed periodically (at 0, 1, 3, 6, 9, 12, and 24 months). Water content was assessed at 0, 1, 6, and 12 months by Karl Fisher titration and TGA. XRPD spectra were taken at 0, 1, 3 and 6 months.

[7] = Long term-storage stability of Form 7
[8] = Ambient light and temperature (closed vial)

What does the source list for Cc1nn(C)cc1-c1nc2c(N3CCN(Cc4ccc(Cl)cc4)CC3)c(Cl)cnc2[nH]1 [Form 4, 6-chloro-7-(4-(4-chlorobenzyl)piperazin-1-yl)-2-(1,3-dimethyl-1H-pyrazol-4-yl)-3H-imidazo[4,5-b]pyridine]?
stability in organic solvents (XRPD) ([1]; 1,4-dioxane): stable; form change on drying ([1]; drying): converts to Form 2

With Cc1nn(C)cc1-c1nc2c(N3CCN(Cc4ccc(Cl)cc4)CC3)c(Cl)cnc2[nH]1 [Form 6, 6-chloro-7-(4-(4-chlorobenzyl)piperazin-1-yl)-2-(1,3-dimethyl-1H-pyrazol-4-yl)-3H-imidazo[4,5-b]pyridine] as the molecule, how does the “change in form on handling in solvent (XRPD)” value ([1]; DMSO) read?
The value was “without any change in form”.

With Cc1nn(C)cc1-c1nc2c(N3CCN(Cc4ccc(Cl)cc4)CC3)c(Cl)cnc2[nH]1 [Compound A fumarate, 6-chloro-7-(4-(4-chlorobenzyl)piperazin-1-yl)-2-(1,3-dimethyl-1H-pyrazol-4-yl)-3H-imidazo[4,5-b]pyridine] as the molecule, how does the “hygroscopicity (in words)” value ([2]; listed as fumarate salt) read?
The value was “unexpectedly low hygroscopicity”.

And the “hygroscopicity (in words)” value ([2]; listed as fumarate salt of Compound A)?
Its value is “only slightly hygroscopic”.

And the solubility ([3]; HPLC grade water, water, thermodynamic from solid)?
Its solubility is 50 to 4000 µg/mL.

With Cc1nn(C)cc1-c1nc2c(N3CCN(Cc4ccc(Cl)cc4)CC3)c(Cl)cnc2[nH]1 [Form 2, 6-chloro-7-(4-(4-chlorobenzyl)piperazin-1-yl)-2-(1,3-dimethyl-1H-pyrazol-4-yl)-3H-imidazo[4,5-b]pyridine] as the molecule, how does the “change in form (XRPD peaks, spectra, unit cell)” value ([1]; 1,4-dioxane and lyophilisation conditions) read?
Its value is “no change in the characteristic XRPD peaks, spectra, or unit cell”.

For Cc1nn(C)cc1-c1nc2c(N3CCN(Cc4ccc(Cl)cc4)CC3)c(Cl)cnc2[nH]1 [Form 8, 6-chloro-7-(4-(4-chlorobenzyl)piperazin-1-yl)-2-(1,3-dimethyl-1H-pyrazol-4-yl)-3H-imidazo[4,5-b]pyridine], which “stability in organic solvents” value ([1]; benzyl alcohol) is on record?
The value was “stable”.

With Cc1nn(C)cc1-c1nc2c(N3CCN(Cc4ccc(Cl)cc4)CC3)c(Cl)cnc2[nH]1 [Compound A mesylate, 6-chloro-7-(4-(4-chlorobenzyl)piperazin-1-yl)-2-(1,3-dimethyl-1H-pyrazol-4-yl)-3H-imidazo[4,5-b]pyridine] as the molecule, how does the “solubility compared to the free base of Compound A” value ([3]; aqueous) read?
Its value is “unexpectedly large increase in solubility”.

Which “form change, hydration or dehydration after DVS (XRPD of recovered solids)” value [2] does the source give for Cc1nn(C)cc1-c1nc2c(N3CCN(Cc4ccc(Cl)cc4)CC3)c(Cl)cnc2[nH]1 [Form 3, 6-chloro-7-(4-(4-chlorobenzyl)piperazin-1-yl)-2-(1,3-dimethyl-1H-pyrazol-4-yl)-3H-imidazo[4,5-b]pyridine] here?
The value was “No evidence of hydration or dehydration”.

What about the “DVS uptake (weight increase)” value ([2]; at 90% RH) of the same molecule?
The value was “ca. 0.5 wt. %”.

And the “Concentration (thermodynamic solubility)” value ([4]; FaSSGF pH 1.6, listed as Compound A fumarate form 3)?
The value was 2000 µg/mL.

And the “Concentration (thermodynamic solubility)” value ([4]; FaSSIF pH 6.5, listed as Compound A fumarate form 3)?
Its value is under 100 µg/mL.

And the solubility thermodynamic ([4]; FaSSIF, pH 6.5, fassif, thermodynamic from solid, FaSSIF pH 6.5, read-out: Concentration (thermodynamic solubility))?
The solubility thermodynamic was under 100 µg/mL.

And the “Concentration (thermodynamic solubility)” value ([4]; FeSSIF pH 5.0, listed as Compound A fumarate form 3)?
Its value is under 100 µg/mL.

What about the “Purity (% area) after storage” value ([5]; 40° C./75% RH (open vial)) of the same molecule?
Its value is 99.5 % area.

And the “XRPD form after storage” value ([5]; 40° C./75% RH (open vial))?
Its value is “Form 3”.

What about the “Purity (% area) after storage” value ([5]; 80° C. (closed vial)) of the same molecule?
Its value is 99.6 % area.

And the “XRPD form after storage” value ([5]; 80° C. (closed vial))?
The value was “Form 3”.

And the “Purity (% area) after storage” value [5, 8]?
Its value is 99.6 % area.

And the “XRPD form after storage” value [5, 8]?
The value was “Form 3”.

And the “changes in purity after storage” value ([5]; all three storage conditions)?
Its value is “No changes in purity”.

What about the “visual changes after storage” value ([5]; all three storage conditions) of the same molecule?
The value was “No visual changes”.

And the “change in form on handling in organic solvents (XRPD)” value (“change … in organic solvents (XRPD)” below) ([1]; dimethoxymethane, 2-MeTHF, water:MeOH, EtOAc, IPA, MEK, MIBK, THF, acetone, acetonitrile)?
The value was “without change in form”.

With Cc1nn(C)cc1-c1nc2c(N3CCN(Cc4ccc(Cl)cc4)CC3)c(Cl)cnc2[nH]1 [Form 1, 6-chloro-7-(4-(4-chlorobenzyl)piperazin-1-yl)-2-(1,3-dimethyl-1H-pyrazol-4-yl)-3H-imidazo[4,5-b]pyridine] as the molecule, how does the “form change, hydration or dehydration after DVS (XRPD of recovered solids)” value [2] read?
The value was “No evidence of form change”.

What about the “DVS uptake as equivalents of water” value ([2]; at 90% RH) of the same molecule?
Its value is 0.07 equivalents of water.

What about the “DVS uptake (weight increase)” value ([2]; at 90% RH) of the same molecule?
Its value is 0.7 wt. %.

What about the “changes in XRPD / form on storage” value ([6]; 0, 1, 3 and 6 months, ambient and accelerated conditions) of the same molecule?
The value was “no significant changes; also recorded: no changes in XRPD”.

What about the “levels of impurities (HPLC)” value ([6]; 5° C., 25° C./60% RH, 40° C./75% RH, 55° C., over 24 months) of the same molecule?
The value was at most 0.6%.

And the water content ([6]; after 12 months, Karl Fisher titration and TGA)?
The water content was “below the limit of quantification”.

What about the changes in mass ([6]; storage at 5° C., 25° C./60% RH, 40° C./75% RH, 55° C.) of the same molecule?
The changes in mass was “negligible”.

What about the “Concentration (thermodynamic solubility)” value ([4]; FaSSGF pH 1.6, listed as Compound A fumarate form 1) of the same molecule?
Its value is 3400 µg/mL.

What about the “Concentration (thermodynamic solubility)” value ([4]; FaSSIF pH 6.5, listed as Compound A fumarate form 1) of the same molecule?
Its value is “insoluble; also recorded: Below LOD”.

What about the “Concentration (thermodynamic solubility)” value ([4]; FeSSIF pH 5.0, listed as Compound A fumarate form 1) of the same molecule?
The value was 300 µg/mL.

And the “change in form upon exposure to organic solvents (XRPD)” value ([1]; 1-butanol, 1-propanol, 2-ethoxyethanol, acetone, acetonitrile, MEK, THF, 1,1-dimethoxymethane, or DMSO)?
The value was “no change in form”.

For Cc1nn(C)cc1-c1nc2c(N3CCN(Cc4ccc(Cl)cc4)CC3)c(Cl)cnc2[nH]1 [Form 7, 6-chloro-7-(4-(4-chlorobenzyl)piperazin-1-yl)-2-(1,3-dimethyl-1H-pyrazol-4-yl)-3H-imidazo[4,5-b]pyridine], which “hygroscopicity (in words)” value [2] is on record?
Its value is “only slightly hygroscopic”.

What about the “stability under long term-storage conditions” value [7] of the same molecule?
The value was “stable”.

What about the “change … in organic solvents (XRPD)” value ([1]; methanol and TBME) of the same molecule?
The value was “without any change in form”.

For Cc1nn(C)cc1-c1nc2c(N3CCN(Cc4ccc(Cl)cc4)CC3)c(Cl)cnc2[nH]1 [Form 5, 6-chloro-7-(4-(4-chlorobenzyl)piperazin-1-yl)-2-(1,3-dimethyl-1H-pyrazol-4-yl)-3H-imidazo[4,5-b]pyridine], which “change … in organic solvents (XRPD)” value ([1]; benzyl alcohol) is on record?
Its value is “without any change in form”.
